Article PMC3130825 (Journal of medicinal chemistry, 2010)
Several values for one entry are separate records, joined by “and”; a condition that tells them apart may be missing. Equal values may be shown once.

Columns and labels:
[1] = system: nicotine-induced antinociception (tail-flick); experiment: Block of nicotine-induced antinociception, tail-flick test; type: in vivo, mice; conditions: for ED50: Mus musculus, read-out: AD50 Tail-flick; for potency relative to 2 in the tail-flick assay: mouse, in vivo
α3β4*-nAChR = α3β4*-nAChR (Homo sapiens, UniProt P30926+P32297); experiment: 86Rb+ efflux assay, SH-SY5Y cells; type: cell-based
Sequence of α3β4*-nAChR (P32297 32-505): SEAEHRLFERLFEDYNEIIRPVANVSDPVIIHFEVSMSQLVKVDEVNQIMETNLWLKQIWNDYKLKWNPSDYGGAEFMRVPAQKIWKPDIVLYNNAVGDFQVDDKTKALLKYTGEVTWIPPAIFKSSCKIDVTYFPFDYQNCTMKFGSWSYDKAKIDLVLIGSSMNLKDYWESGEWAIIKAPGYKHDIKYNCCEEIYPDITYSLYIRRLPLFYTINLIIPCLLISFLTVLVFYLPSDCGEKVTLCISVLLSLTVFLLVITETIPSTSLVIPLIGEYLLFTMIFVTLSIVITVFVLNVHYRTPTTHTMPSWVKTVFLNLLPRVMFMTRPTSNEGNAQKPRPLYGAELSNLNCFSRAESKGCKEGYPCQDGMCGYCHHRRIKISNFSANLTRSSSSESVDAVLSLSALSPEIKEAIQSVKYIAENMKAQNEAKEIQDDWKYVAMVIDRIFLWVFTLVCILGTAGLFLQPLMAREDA
Sequence of α3β4*-nAChR (P30926 22-498): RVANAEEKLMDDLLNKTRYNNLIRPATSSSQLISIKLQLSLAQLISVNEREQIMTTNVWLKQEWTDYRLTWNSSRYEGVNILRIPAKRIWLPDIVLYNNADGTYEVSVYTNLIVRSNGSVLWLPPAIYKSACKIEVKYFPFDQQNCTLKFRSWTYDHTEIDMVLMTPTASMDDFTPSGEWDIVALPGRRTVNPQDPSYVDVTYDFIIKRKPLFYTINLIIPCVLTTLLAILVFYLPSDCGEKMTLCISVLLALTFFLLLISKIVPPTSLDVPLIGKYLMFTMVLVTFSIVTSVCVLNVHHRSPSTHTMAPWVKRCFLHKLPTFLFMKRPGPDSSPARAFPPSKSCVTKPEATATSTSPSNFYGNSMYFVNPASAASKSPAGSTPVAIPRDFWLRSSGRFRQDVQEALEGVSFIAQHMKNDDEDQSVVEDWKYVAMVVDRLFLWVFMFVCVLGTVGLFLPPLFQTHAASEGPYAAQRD

[2] = system: nicotine-induced locomotor effect; experiment: Block of nicotine effect on locomotor activity; set-up: species or system mice; conditions: mouse, in vivo
hNET = hNET (Homo sapiens, UniProt P23975); experiment: [3H]norepinephrine uptake inhibition in HEK293 cells; type: cell-based; conditions: for potency relative to 2 as NE uptake inhibitor: better than 2
Sequence of hNET (P23975 whole entry): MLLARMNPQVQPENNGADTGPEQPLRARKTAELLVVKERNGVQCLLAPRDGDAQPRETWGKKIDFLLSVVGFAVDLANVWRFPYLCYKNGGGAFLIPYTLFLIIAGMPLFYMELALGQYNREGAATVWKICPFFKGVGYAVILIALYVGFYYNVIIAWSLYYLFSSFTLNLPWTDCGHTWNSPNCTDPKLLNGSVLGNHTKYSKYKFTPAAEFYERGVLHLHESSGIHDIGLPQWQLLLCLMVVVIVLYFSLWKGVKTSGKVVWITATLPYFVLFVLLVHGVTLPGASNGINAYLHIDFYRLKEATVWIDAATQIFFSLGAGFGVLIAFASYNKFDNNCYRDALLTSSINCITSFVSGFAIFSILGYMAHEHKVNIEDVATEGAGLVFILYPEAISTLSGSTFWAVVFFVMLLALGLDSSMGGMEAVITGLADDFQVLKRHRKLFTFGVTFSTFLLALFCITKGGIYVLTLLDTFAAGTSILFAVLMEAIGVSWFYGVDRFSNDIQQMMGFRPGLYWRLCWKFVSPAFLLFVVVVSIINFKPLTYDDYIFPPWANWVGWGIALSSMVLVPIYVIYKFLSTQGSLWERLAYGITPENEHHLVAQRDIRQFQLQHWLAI

[3] = system: nicotine-induced hypothermia; experiment: Block of nicotine-induced hypothermia; set-up: species or system mice; conditions: mouse, in vivo
[4] = system: nicotine-induced antinociception (hot-plate); experiment: Block of nicotine-induced antinociception, hot-plate test; set-up: species or system mice; conditions: mouse, in vivo
hSERT = hSERT (Homo sapiens, UniProt P31645); type: cell-based
Sequence of hSERT (P31645 whole entry): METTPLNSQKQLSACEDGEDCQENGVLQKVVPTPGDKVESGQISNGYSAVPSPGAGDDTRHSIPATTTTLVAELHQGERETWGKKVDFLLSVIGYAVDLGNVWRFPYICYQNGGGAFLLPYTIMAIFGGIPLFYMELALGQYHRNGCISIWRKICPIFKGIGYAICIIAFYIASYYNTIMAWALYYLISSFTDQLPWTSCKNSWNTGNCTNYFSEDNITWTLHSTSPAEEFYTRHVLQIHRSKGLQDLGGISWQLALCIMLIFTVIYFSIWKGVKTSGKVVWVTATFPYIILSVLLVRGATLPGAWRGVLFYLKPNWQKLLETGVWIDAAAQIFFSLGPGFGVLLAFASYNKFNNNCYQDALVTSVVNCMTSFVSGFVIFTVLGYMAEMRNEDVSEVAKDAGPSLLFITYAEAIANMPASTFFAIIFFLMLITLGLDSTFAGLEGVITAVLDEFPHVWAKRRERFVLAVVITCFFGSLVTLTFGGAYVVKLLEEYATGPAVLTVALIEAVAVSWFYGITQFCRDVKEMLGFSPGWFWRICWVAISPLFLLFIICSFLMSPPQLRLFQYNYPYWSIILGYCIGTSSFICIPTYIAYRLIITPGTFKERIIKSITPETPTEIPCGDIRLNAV

locomotor activity = conditions: cited from earlier work
[5] = cited from earlier work
[6] = system: CB-1 cannabinoid receptor; conditions: cited from earlier work
nicotine-induced CPP = experiment: Block of development of nicotine conditioned place preference; set-up: species or system mice; conditions: mouse, in vivo

## COc1ccc(-c2cc([C@H]3[C@@H](c4ccc(Cl)cc4)C[C@@H]4CC[C@H]3N4C)on2)cc1 [Compound 4e]
[1]
  ED50: 0.018 mg/kg
α3β4*-nAChR
  preference for functional inhibition of α3β4*- over α4β4-nAChR: > 56 fold

## COC(=O)[C@H]1[C@@H](c2ccc(Cl)c(C)c2)C[C@@H]2CC[C@H]1N2C [Compound 4g, 3β-(4-chlorophenyl-3-methyl)tropane-2β-carboxylic acid methyl ester]
[1]
  ED50: 0.21 mg/kg
  potency relative to 2 in the tail-flick assay: 6 fold
[2]
  potency relative to 2 in the locomotor test: 44 fold
hNET
  potency relative to 2 as NE uptake inhibitor: ~ 2000 fold
[3]
  potency relative to 2 in the hypothermia (body temperature) test: 65 fold
[4]
  potency relative to 2 in the hot-plate assay: 40 fold

## COC(=O)[C@H]1[C@@H](c2ccc(Cl)c(C)c2)C[C@@H]2CC[C@H]1N2 [Compound 4h, 3β-(4-chloro-3-methylphenyl)nortropane-2β-carboxylic acid methyl ester]
[1]
  ED50: 0.003 mg/kg

## COC(=O)[C@@H]1[C@H]2CC[C@@H](C[C@H]1c1ccc(Cl)c(C)c1)N2C [Compound 4k, 3α-(4-Chloro-3-methylphenyl)tropane-2β-carboxylic acid Methyl Ester]
[1]
  ED50: 0.026 mg/kg

## Cc1cc([C@H]2[C@@H](c3ccc(Cl)c(C)c3)C[C@@H]3CC[C@H]2N3C)on1 [Compound 4i, 3β-(4-chloro-3-methylphenyl)-2β-(3′-methylisoxazol-5′-yl)tropane]
[1]
  ED50: 0.009 mg/kg
α3β4*-nAChR
  preference for functional inhibition of α3β4*- over α4β2-nAChR: 11 fold and 10–13 fold

## Cc1cc([C@H]2C[C@@H]3CC[C@H]([C@H]2c2cc(-c4ccccc4)no2)N3C)ccc1Cl [Compound 4j]
[1]
  ED50: 2.5 mg/kg
hNET
  preference for NE over DA uptake inhibition: comparable
α3β4*-nAChR
  preference for functional inhibition of α3β4*- over α4β2-nAChR: 10–13 fold

## Cc1ccc([C@H]2C[C@@H]3CC[C@H]([C@H]2C(=O)OC(C)C)N3C)cc1 [Compound 4a, 3β-(4-Methylphenyl)tropane-2β-carboxylic acid isopropyl ester]
[1]
  ED50: 0.015 mg/kg

## CCc1cc([C@H]2[C@@H](c3ccc(C)cc3)C[C@@H]3CC[C@H]2N3C)on1 [Compound 4c, 3β-(4-methylphenyl)-2β-(3′-ethylisoxazol-5′-yl)tropane]
[1]
  ED50: 0.008 mg/kg
  potency relative to 2 in the tail-flick assay: 150 fold
hNET
  potency relative to 2 as NE uptake inhibitor: ~ 170 fold
hSERT
  potency relative to 2 as 5HT uptake inhibitor: no less than 5 fold
[3]
  potency relative to 2 in the hypothermia (body temperature) test: marginally more potent
[4]
  potency relative to 2 in the hot-plate assay: 9 fold

## Cc1ccc([C@H]2C[C@@H]3CC[C@H]([C@H]2c2cc(-c4ccc(Cl)cc4)no2)N3C)cc1 [Compound 4d]
[1]
  ED50: > 20 mg/kg
Locomotor activity
  locomotor activity in rats: did not show locomotor activity
[5]
  brain levels in in vivo binding studies: appreciable brain levels were achieved
[6]
  modulation of the CB-1 cannabinoid receptor: positive allosteric modulator
nicotine-induced CPP
  potency relative to 2 in the CPP assay: 27 fold

## CC(NC(C)(C)C)C(=O)c1cccc(Cl)c1 (centres unmarked) [Compound 2, bupropion, reference compound]
[1]
  ED50: 1.2 mg/kg

## Cc1ccc([C@H]2C[C@@H]3CC[C@H]([C@H]2C(=O)OC2CCC2)N3C)cc1 [Compound 4b]
[1]
  ED50: 0.28 mg/kg
